Here are results for one compound from the NIST ThermoML archive (doi:10.1021/acs.jced.9b00696).

Data set [1] in a line: Molar enthalpy of transition or fusion. As to conditions: Crystal; DSC.
For data set [2] the following is noted: Crystal; DSC.

Numbers after ± are expanded uncertainties.

Regarding `C[C@]12CCC3=C4CCC(=O)C=C4CC[C@H]3[C@@H]1CC[C@@]2(O)CC#N` [dienogest], the “Molar enthalpy of transition or fusion” value in data set [1] worked out at 7.23 ± 0.335 kcal/mol. For the same compound, in data set [2], the Triple point temperature is on record as 485.01 ± 0.81 K.
